Patent US5202127A, “Moth-proofing method using trioxane as sole active” (Mitsubishi Gas Chemical Co., Inc., priority 1986, dated 1993)

Legend:
[1] = system: larvae of case making clothes moths; experiment: killing of case making clothes moth larvae in plugged bottle at 25° C. for 4 hours (Tables 3 and 4); assay type: in vivo; settings: 10 larvae, chemicals in the solid state, 2 g, 4 hours (Table 4)
Procedure: Granular trioxane containing 1 ppm of formic acid and 2 ppm of formaldehyde was dissolved in various organic solvents at a predetermined concentration to prepare organic liquid insect-proofing agents.
Square absorbent cotton piece having a side of 3 cm, which was impregnated with 2 g of the organic liquid insect-proofing agent, was placed in the bottom portion of a glass bottle having a volume of 500 ml, and an insect cage of a metal net having a diameter of 3 cm, which contained 10 larvae of case making clothes moths having a body length of about 6 mm and a square wool fabric having a side of 3 cm, was secured the absorbent cotton 5 cm apart therefrom. Then, the bottle was plugged and allowed to stand in a thermostat chamber maintained at 25° C. for 4 hours. Then, the cage was taken up and the state of the larvae of case making clothes was checked.
Each of p-dichlorobenzene, naphthalene and dl-camphor was used in the form of a granular reagent. […] One pack of "Mothproofing Agent for Drawers" supplied by Dainippon Jochugiku (corresponding to 12.5 liters) was used as the pyrethroid type chemicals. No chemical was used in Comparative Example 13.

[2] = cited from earlier work
[3] = system: larvae of case making clothes moths; experiment: test for controlling harmful insects to clothes, case making clothes moth larvae (Table 1); assay type: in vivo; set-up: key to Eating damage degree after 24 hours: A: no eating damage; B: eating damage was only a trace; C: intermediate between ranks B and D; D: large eating damage (damage in absence of insect-proofing agent); settings: for Number of dead insects after 6 hours / Number of dead insects after 24 hours: 10 case making clothes moth larvae, 500 ml bottle, 24° to 26° C.; for Eating damage degree after 24 hours: wool fabric, case making clothes moth larvae
Procedure: (§1) The solid insect-proofing agent was subjected to the test for controlling harmful insects to clothes.
(§2) A glass bottle having a volume of 500 ml was charged with 10 harmful insects and one square wool fabric piece having a side of 3 cm, and one pellet of the solid insect-proofing agent was placed apart from the wool fabric piece. The bottle was tightly plugged and was allowed to stand in the dark place at a temperature of 24° to 26° C.
(§3) For comparison, commercially available moth-proofing agents, p-dichlorobenzene and naphthalene (each was in the form of a flat disk-shaped pellet having a diameter of 21 mm), were similarly tested, and the test was carried out without using any moth-proofing agent.
(§4) The results of the tests conducted on larvae of case making clothes moths having a body length of about 6 mm as the harmful insects (Example 6 and Comparative Examples 1 to 3) are shown in Table 1, and the results of the test conducted on larvae of varied carpet beetles having a body length of about 4 mm as harmful insects (Example 7 and Comparative Examples 4 to 6) are shown in Table 2.

[4] = system: larvae of varied carpet beetles; experiment: test for controlling harmful insects to clothes, varied carpet beetle larvae (Table 2); assay type: in vivo; set-up: key to Eating damage degree after 24 hours: A: no eating damage; B: eating damage was only a trace; C: intermediate between ranks B and D; D: large eating damage (damage in absence of insect-proofing agent); settings: for Number of dead insects after 6 hours / Number of dead insects after 24 hours: 10 varied carpet beetle larvae, 500 ml bottle, 24° to 26° C.; for Eating damage degree after 24 hours: wool fabric, varied carpet beetle larvae
Procedure: as §1, §2, §3, §4

[5] = it is said; cited from earlier work
[6] = system: insects; experiment: insecticidal force and repellency, general statement; assay type: in vivo
[7] = system: rats; settings: oral administration to rats; cited from earlier work
[8] = system: mice; settings: cited from earlier work
[9] = system: rats; settings: cited from earlier work
[10] = system: small fruit flies (drosophila); settings: cited from earlier work
[11] = system: salmonellae; settings: cited from earlier work
[12] = cited from earlier work; remark: listed apart in the source

SMILES | Number of Killed Insects [1] | solubility in water [2] | Number of dead insects after 6 hours [3] | Number of dead insects after 24 hours [3] | Eating damage degree after 24 hours [3] | Number of dead insects after 6 hours [4] | Number of dead insects after 24 hours [4] | Eating damage degree after 24 hours [4] | also measured
CC1(C)[C@@H]2CC[C@@]1(C)C(=O)C2 (relative stereo) [dl-camphor] | 0 | – | – | – | – | – | – | – | –
CC12CCC(CC1=O)C2(C)C (stereo not drawn) [camphor] | – | hardly soluble or is insoluble in water | – | – | – | – | – | – | –
c1ccc2ccccc2c1 [naphthalene] | 0 | hardly soluble or is insoluble in water | 0 | 2 | B | 0 | 0 | C | –
Clc1ccc(Cl)cc1 [p-dichlorobenzene] | 2 | hardly soluble or is insoluble in water | 5 | 10 | A | 3 | 9 | A | health effects [5]: causes liver troubles, lung granulomata, cataract and dermatitis
C1OCOCO1 [trioxane, 1,3,5-trioxane] | – | soluble in water | – | – | – | – | – | – | insecticidal force ([6]; compared with p-dichlorobenzene): weaker than that of p-dichlorobenzene; repellency to insects ([6]; in vivo): sufficient repellency to insects; LD50 [7]: 8,500 mg/kg; mutagenicity [8]: no mutagenicity; mutagenicity [9]: no mutagenicity; mutagenicity [10]: no mutagenicity; mutagenicity [11]: no mutagenicity; solubility in other various organic solvents ([2]; organic solvents other than saturated hydrocarbons): highly soluble; solubility in saturated hydrocarbons ([2]; saturated hydrocarbons): poor; stability in highly acidic aqueous solution ([12]; highly acidic aqueous solution): hydrolyzed; stability in neutral or alkaline aqueous solution ([12]; neutral or alkaline aqueous solution): stable; hydrolyzability ([12]; normal state): very low; stability in air ([12]; normal temperature in air): very stable
